Read-outs that look alike come from different tables or passages of the source.
Columns and labels:
Format in all cases: in vivo
[1] = tested on: Abutilon theophrasti (ABUTH); test: Pre-emergence herbicidal action against ABUTH; conditions: 100% = plants have died
Outline: (§1)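 Pre-emergence soil-surface spray, WP/EC formulation, 0.5% additive, 600 l/ha water, rates of 320 g/ha or lower. Greenhouse, ~3 wk. Visual score, % of untreated control (100% = plants dead, 0% = like control).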

Avena fatua (AVEFA) = test: Pre-emergence herbicidal action against AVEFA; conditions: visual scoring after about 3 weeks vs untreated controls
Outline: as §1

[2] = tested on: Digitaria sanguinalis (DIGSA); test: Pre-emergence herbicidal action against DIGSA
Outline: as §1

[3] = tested on: Amaranthus retroflexus (AMARE); test: Post-emergence herbicidal action against AMARE
Outline: (§2)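 Values are percent visual activity (0% like control, 100% plants dead) after about 3 weeks in the greenhouse. Treatment: post-emergence spray at one-leaf stage, 600 l/ha spray volume, 0.5% additive, doses 320 g/ha or lower.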

[4] = tested on: Digitaria sanguinalis (DIGSA); test: Post-emergence herbicidal action against DIGSA; conditions: visual rating about 3 weeks after treatment
Outline: as §2

Setaria viridis (SETVI) = test: Post-emergence herbicidal action against SETVI
Outline: as §2

Oryza sativa (ORYSA) = conditions: crop plant compatibility
Outline: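 Percent effect on the crop was judged by eye against untreated controls, where 0% means like control and 100% means dead plants. Plants had been sprayed post-emergence at the one-leaf stage and then kept under optimum greenhouse conditions for about 3 weeks.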

[5] = Dosage column 320 g/ha (title prints 3200 g/ha), scored visually after about 3 weeks
[6] = 80 g/ha, visual scoring after about 3 weeks vs untreated controls
[7] = 320 g/ha, visual rating about 3 weeks after treatment
[8] = 80 g/ha, effect in comparison to untreated controls
[9] = 80 g/ha, visual rating about 3 weeks after treatment vs untreated controls (100% = plants have died, 0% = like control plants)

| Compound | Pre-emergence action against ABUTH [1, 5] [%] | Pre-emergence action against AVEFA in % (Avena fatua (AVEFA); 80 g/ha) [%] | Pre-emergence action against AVEFA in % (Avena fatua (AVEFA); 320 g/ha) [%] | Pre-emergence action against DIGSA in % [2, 6] [%] | Pre-emergence action against DIGSA in % ([2]; dosage 320 g/ha) [%] | Post-emergence action against AMARE in % [3, 7] [%] | Post-emergence action against DIGSA in % ([4]; 80 g/ha) [%] | Post-emergence action against DIGSA in % ([4]; 320 g/ha) [%] | Post-emergence action against SETVI in % (Setaria viridis (SETVI); dosage 80 g/ha) [%] | Post-emergence action against SETVI in % (Setaria viridis (SETVI); dosage 320 g/ha) [%] | Post-emergence action against ORYSA in % (Oryza sativa (ORYSA); [8]) [%] | Post-emergence action against AMARE in % [3, 9] [%] | Pre-emergence action against ABUTH ([1]; 80 g/ha, scored visually after about 3 weeks vs untreated controls, 0% = like control plants) [%] | Post-emergence action against ORYSA in % (Oryza sativa (ORYSA); 20 g/ha, effect vs untreated controls) [%] | Post-emergence action against ORYSA in % (Oryza sativa (ORYSA); 320 g/ha, effect in comparison to untreated controls) [%] |
| --- | --- | --- | --- | --- | --- | --- | --- | --- | --- | --- | --- | --- | --- | --- | --- |
| COCCOC(=O)COc1nn(-c2ncccc2C)c(-c2cncc(F)c2)c1Br [Example I-212] | 80 | 80 | 90 | 100 | 100 | 80 | 90 | 90 | 80 | 80 | 10 |  |  |  |  |
| CCOC(=O)COc1nn(-c2ncccc2F)c(-c2cncc(F)c2)c1C1CC1 [Example I-174] | 90 |  | 90 | 100 | 100 | 80 | 90 | 90 |  |  |  | 80 |  |  |  |
| COC(=O)[C@@H](C)COC(=O)COc1nn(-c2ccccn2)c(-c2cncc(F)c2)c1Br [Example I-194] | 80 | 80 | 90 | 90 | 100 | 90 | 80 | 90 | 90 | 90 | 20 | 80 |  |  |  |
| O=C(O)COc1nn(-c2ncccc2F)c(-c2ccc(F)nc2)c1Br [Example I-08] | 80 | 80 | 90 | 100 | 100 | 90 |  | 90 | 80 | 90 |  | 80 |  |  |  |
| COC(=O)[C@@H](C)Oc1nn(-c2ncccc2F)c(-c2ccc(F)nc2)c1Br [Example I-05, Methyl (2R)-2-{[4-bromo-1-(3-fluoropyridin-2-yl)-5-(6-fluoropyridin-3-yl)-1H-pyrazol-3-yl]oxy}propanoate] | 80 |  | 90 | 100 | 100 | 90 |  | 90 | 80 | 90 |  | 90 |  |  |  |
| COC(=O)[C@@H](C)Oc1nn(-c2nc(F)ccc2F)c(-c2cncc(F)c2)c1C1CC1 [Example I-171] | 90 | 90 | 100 | 80 | 100 | 80 |  | 80 | 90 | 90 |  | 80 |  |  |  |
| CCOC(=O)COc1nn(-c2nc(F)ccc2F)c(-c2cncc(F)c2)c1C1CC1 [Example I-149] | 80 | 80 | 90 | 90 | 100 |  | 80 | 90 | 80 | 80 |  |  |  |  |  |
| COC(=O)COc1nn(-c2ncccc2F)c(-c2cncc(F)c2)c1C1CC1 [Example I-167] | 90 | 90 | 90 | 100 | 100 | 80 | 90 | 90 |  | 80 |  | 80 |  |  |  |
| C[C@@H](Oc1nn(-c2nc(F)ccc2F)c(-c2cncc(F)c2)c1C1CC1)C(=O)O [Example I-180] | 80 | 90 | 90 | 90 | 100 | 90 | 80 | 80 | 80 | 90 |  |  |  |  |  |
| C[C@@H](Oc1nn(-c2ncccc2F)c(-c2ccc(F)nc2)c1Br)C(=O)O [Example I-18] | 90 | 90 | 100 | 100 | 100 |  | 90 | 90 | 80 | 80 | 10 |  | 80 | 0 | 20 |
| COC(=O)COc1nn(-c2nc(F)ccc2F)c(-c2cncc(F)c2)c1C1CC1 [Example I-164] | 80 | 90 | 90 | 90 | 100 |  | 80 | 90 | 80 | 80 |  |  |  |  |  |
| COC(=O)C(C)NC(=O)[C@@H](C)Oc1nn(-c2ccccn2)c(-c2cncc(F)c2)c1Br (stereo partly drawn) [Example I-190] | 80 |  | 90 |  |  | 80 |  |  | 80 | 80 | 20 |  |  |  |  |
